Reference: ChEMBL document CHEMBL1201862, “PubChem BioAssay data set” (2004)
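Method: 48-hour compound exposure of cells in 96-well plates, five concentrations, linear interpolation of endpoints. GI50 marks 50% less growth.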 Calls of active or inactive are those of the source. Cut-off read from the data, not from the text of the source: active = GI50 up to about 1.1 µM and inactive = higher.

What was measured:
Assay in all cases: NCI anticancer screen, dose series, 48 h
[1] = test system: IGROV-1
[2] = test system: DU-145
[3] = test system: UO-31
[4] = test system: CCRF-CEM
[5] = test system: PC-3
[6] = test system: NCI-H460
[7] = test system: OVCAR-8
[8] = test system: ACHN
[9] = test system: HCT-116
[10] = test system: RXF 393
[11] = test system: SK-MEL-28
[12] = test system: 786-0
[13] = test system: HOP-62
[14] = test system: UACC-62
[15] = test system: SNB-75
[16] = test system: MDA-MB-231
[17] = test system: NCI-H23
[18] = test system: MOLT-4
[19] = test system: SNB-19
[20] = test system: EKVX

| Compound | GI50 [1] | GI50 [2] | GI50 [3] | GI50 [4] | GI50 [5] | GI50 [6] | GI50 [7] | GI50 [8] | GI50 [9] | GI50 [10] | GI50 [11] | GI50 [12] | GI50 [13] | GI50 [14] | GI50 [15] | GI50 [16] | GI50 [17] | GI50 [18] | GI50 [19] | GI50 [20] |
| --- | --- | --- | --- | --- | --- | --- | --- | --- | --- | --- | --- | --- | --- | --- | --- | --- | --- | --- | --- | --- |
| CCCC(=O)OCOC(=O)N(C)/N=N/c1ccc(C(=O)OCC)cc1 | 32 µM (inactive) | 22.2 µM (inactive) | 22 µM (inactive) | 37.6 µM (inactive) | 25.1 µM (inactive) | 8.97 µM (inactive) | 27.4 µM (inactive) | 17.5 µM (inactive) | 21.1 µM (inactive) | 16.3 µM (inactive) | 57.7 µM (inactive) | 17.7 µM (inactive) | 29 µM (inactive) | 15.4 µM (inactive) | 26.5 µM (inactive) | 36.5 µM (inactive) | 24.3 µM (inactive) | 39.4 µM (inactive) | 68.9 µM (inactive) | 37.9 µM (inactive) |
| CC(C)C1=C(Cc2ccccc2)C(=O)O/C1=C\c1ccc(O)c(Cl)c1 | 16.8 µM (inactive) | 18.2 µM (inactive) | 14.4 µM (inactive) | 15.5 µM (inactive) | 17.9 µM (inactive) | 17.4 µM (inactive) | 18.3 µM (inactive) | 14.9 µM (inactive) | 15.5 µM (inactive) | 17.5 µM (inactive) | 16.9 µM (inactive) | 16.5 µM (inactive) | 17.7 µM (inactive) | 14.8 µM (inactive) | 16.9 µM (inactive) | 16.2 µM (inactive) | 13.1 µM (inactive) | 10.9 µM (inactive) | 11.5 µM (inactive) | 16.6 µM (inactive) |
| COc1c2c(c(OC)c3c1c(=O)c1ccccc1n3C)OCO2 | 7.87 µM (inactive) | 36.5 µM (inactive) | 39.4 µM (inactive) | 4.35 µM (inactive) | 19.7 µM (inactive) | 8.49 µM (inactive) | 27.1 µM (inactive) | 49.2 µM (inactive) | 6.15 µM (inactive) | 6.07 µM (inactive) | 30.5 µM (inactive) | 29.2 µM (inactive) | 25.2 µM (inactive) | 9.06 µM (inactive) | 6.68 µM (inactive) | 19.3 µM (inactive) | 10.6 µM (inactive) | 7.85 µM (inactive) | 26.5 µM (inactive) | 35.4 µM (inactive) |
| O=C1N/C(=N/N=C/c2cccs2)N/C1=C\c1ccco1 | 26.1 µM (inactive) | > 100 µM (inactive) | > 100 µM (inactive) | 12 µM (inactive) | 18.9 µM (inactive) | 23.2 µM (inactive) | 37 µM (inactive) | > 100 µM (inactive) | 35.5 µM (inactive) | 90.6 µM (inactive) | 76.9 µM (inactive) | 51.6 µM (inactive) | > 100 µM (inactive) | 60.7 µM (inactive) | 84.7 µM (inactive) | > 100 µM (inactive) | 45.3 µM (inactive) | > 100 µM (inactive) | 81.5 µM (inactive) | > 100 µM (inactive) |
| O=C1C=CC(=O)c2c1ccc1c3ccccc3n(Cc3ccccc3)c21 | 21.6 µM (inactive) | > 80.4 µM (inactive) | 20.2 µM (inactive) | 1.8 µM (inactive) | 21.8 µM (inactive) | > 43.2 µM (inactive) | 28.2 µM (inactive) | 18.2 µM (inactive) | 19.1 µM (inactive) | 16.8 µM (inactive) | 24.4 µM (inactive) | 16.2 µM (inactive) | > 100 µM (inactive) | 25.4 µM (inactive) | > 82.8 µM (inactive) | 20.3 µM (inactive) | 19.5 µM (inactive) | 7.55 µM (inactive) | > 100 µM (inactive) | > 64.9 µM (inactive) |
| CC(=O)O[C@H]1C(=O)[C@@]2(C)[C@H]([C@H](OC(=O)c3ccccc3)[C@]3(O)C[C@H](OC(=O)[C@H](O)[C@@H](NC(=O)c4ccccc4)c4ccc5ccccc5c4)C(C)=C1C3(C)C)[C@]1(OC(C)=O)CO[C@@H]1C[C@@H]2O | 0.0467 µM (active) | 0.1 µM (active) | 2.39 µM (inactive) | 0.0287 µM (active) | 0.0553 µM (active) | 0.0706 µM (active) | 0.091 µM (active) | 1.51 µM (inactive) | 0.0266 µM (active) | 0.219 µM (active) | 0.132 µM (active) | 0.153 µM (active) | 0.0506 µM (active) | 0.0463 µM (active) | 0.0594 µM (active) | 0.0476 µM (active) | 0.0912 µM (active) | 0.0264 µM (active) | 0.279 µM (active) | 5.35 µM (inactive) |
| c1ccc2cc3c(NC4=NCCO4)cccc3cc2c1 | 60.8 µM (inactive) | 78.7 µM (inactive) | 53 µM (inactive) | 27.7 µM (inactive) | 45.1 µM (inactive) | 29 µM (inactive) | 48.5 µM (inactive) | 68.1 µM (inactive) | 50 µM (inactive) | > 100 µM (inactive) | > 100 µM (inactive) | 57 µM (inactive) | > 100 µM (inactive) | > 100 µM (inactive) | 24.8 µM (inactive) | 25.2 µM (inactive) | 32.9 µM (inactive) | 31.1 µM (inactive) | 78.7 µM (inactive) | 76.2 µM (inactive) |
| COc1cc2oc3c(c(=O)c2c(O)c1/C=C/C(C)C)CCC(C)(C)Oc1cc(O)ccc1-3 | 17.7 µM (inactive) | 33.8 µM (inactive) | 13.1 µM (inactive) | 17.3 µM (inactive) | 15.2 µM (inactive) | 8.41 µM (inactive) | 15.5 µM (inactive) | 14.1 µM (inactive) | 18.2 µM (inactive) | 11.5 µM (inactive) | 14.8 µM (inactive) | 14.9 µM (inactive) | 15.4 µM (inactive) | 15.6 µM (inactive) | 16 µM (inactive) | 16.6 µM (inactive) | 16 µM (inactive) | 13 µM (inactive) | 16.1 µM (inactive) | 18.1 µM (inactive) |
| O=c1oc2ccc3ccccc3c2cc1-c1nc2ccccc2o1 | 12.7 µM (inactive) | 20.7 µM (inactive) | 30.9 µM (inactive) | 37.7 µM (inactive) | 28.1 µM (inactive) | 27.5 µM (inactive) | 23.2 µM (inactive) | 13.9 µM (inactive) | 21.7 µM (inactive) | 16.1 µM (inactive) | 22.6 µM (inactive) | 18.6 µM (inactive) | 18.6 µM (inactive) | 36.1 µM (inactive) | 17.5 µM (inactive) | 16.8 µM (inactive) | 27.4 µM (inactive) | 35.2 µM (inactive) | 19.7 µM (inactive) | 20.6 µM (inactive) |
| CN(C)CC1CCC(CN(C)C)C(=O)C1=O (stereo not given) | 17.6 µM (inactive) | 16.5 µM (inactive) | 3.48 µM (inactive) | 1.73 µM (inactive) | 16.7 µM (inactive) | 18.8 µM (inactive) | 3.01 µM (inactive) | 4.85 µM (inactive) | 2.4 µM (inactive) | 1.82 µM (inactive) | 8.87 µM (inactive) | 5.14 µM (inactive) | 20.1 µM (inactive) | 16.1 µM (inactive) | 14.7 µM (inactive) | 6.22 µM (inactive) | 14.6 µM (inactive) | 2.03 µM (inactive) | 17.7 µM (inactive) | 17.3 µM (inactive) |
| ClCc1nc2ccccc2[nH]1 | > 100 µM (inactive) | > 100 µM (inactive) | > 100 µM (inactive) | > 100 µM (inactive) | > 100 µM (inactive) | > 100 µM (inactive) | > 100 µM (inactive) | 85.1 µM (inactive) | > 100 µM (inactive) | > 100 µM (inactive) | > 100 µM (inactive) | > 100 µM (inactive) | > 100 µM (inactive) | > 100 µM (inactive) | 66.8 µM (inactive) | > 100 µM (inactive) | > 100 µM (inactive) | 54 µM (inactive) | > 100 µM (inactive) | > 100 µM (inactive) |
| Nc1ncc2c(n1)-c1ccccc1OC2N1CCOCC1 (stereo not given) | > 100 µM (inactive) | > 100 µM (inactive) | > 100 µM (inactive) | > 100 µM (inactive) | > 100 µM (inactive) | > 100 µM (inactive) | > 100 µM (inactive) | > 100 µM (inactive) | > 100 µM (inactive) | > 100 µM (inactive) | > 100 µM (inactive) | > 100 µM (inactive) | > 100 µM (inactive) | > 100 µM (inactive) | 59.7 µM (inactive) | > 100 µM (inactive) | > 100 µM (inactive) | > 100 µM (inactive) | > 100 µM (inactive) | 85.9 µM (inactive) |
| O=C(CCCN1CCC2(CC1)C(=O)NC(=O)N2c1ccccc1)c1ccc(F)cc1 | > 100 µM (inactive) | > 100 µM (inactive) | > 100 µM (inactive) | > 100 µM (inactive) | > 100 µM (inactive) | > 100 µM (inactive) | > 100 µM (inactive) | > 100 µM (inactive) | > 100 µM (inactive) | > 100 µM (inactive) | > 100 µM (inactive) | > 100 µM (inactive) | > 100 µM (inactive) | > 100 µM (inactive) | > 100 µM (inactive) | > 100 µM (inactive) | > 100 µM (inactive) | > 100 µM (inactive) | > 100 µM (inactive) | > 100 µM (inactive) |
| CNC(=O)c1nnn(C2CCCCC2)c1S | > 100 µM (inactive) | > 100 µM (inactive) | > 100 µM (inactive) | > 100 µM (inactive) | > 100 µM (inactive) | > 100 µM (inactive) | > 100 µM (inactive) | > 100 µM (inactive) | > 100 µM (inactive) | > 100 µM (inactive) | > 100 µM (inactive) | > 100 µM (inactive) | > 100 µM (inactive) | > 100 µM (inactive) | > 100 µM (inactive) | > 100 µM (inactive) | > 100 µM (inactive) | > 100 µM (inactive) | > 100 µM (inactive) | > 100 µM (inactive) |
